The test system of one assay is Saccharomyces cerevisiae. In words: Antifungal growth inhibition bioassay (96-well, A600). In kind it is cell-based.
In assay [1] the test system is Phytophthora parasitica nicotiana. Described as above. Format: cell-based.
Assay [2] deals with Pseudomonas syringae tabaci. In words: Antibacterial growth inhibition bioassay (96-well, A600). Format: cell-based.
In another assay the test system is Phytophthora cryptogea. In words: Antifungal growth inhibition bioassay (96-well, A600). Format: cell-based.
A further assay has as its system Alternaria helianthi. To be noted: Table 1, no added Ca2+.
For another assay, the system named is Ceratocystis paradoxa. In words: Antifungal growth inhibition bioassay (96-well, A600). Format: cell-based.
The test system of the next assay is Chalara elegans. The description is as above. Format: cell-based.
Assay [3] concerns Clavibacter michiganensis. In words: Antibacterial growth inhibition bioassay (96-well, A600). In kind it is cell-based.
In another assay the test system is fungi and bacteria. In words: Antifungal and antibacterial activity bioassays, results in words. In kind it is cell-based. As to conditions: for antimicrobial / antifungal activity (in words): bioassays as in Example 2.
For the next assay, the system named is Ralstonia solanacearum. Format: cell-based.
Another assay deals with Cercospora nicotianae. In words: Antifungal growth inhibition bioassay (96-well, A600). In kind it is cell-based.
A further assay relates to Candida albicans. Described as above. In kind it is cell-based.
The subject of another assay is Escherichia coli. In words: Antibacterial growth inhibition bioassay (96-well, A600). In kind it is cell-based.
The mark [4] stands for this setting: Table 1, 1 mM Ca2+ in test medium.

Read-outs that look alike come from different tables or passages of the source. Where no end group is shown, it is not given here.

For the substance “MiAMP2c: 47-amino-acid antimicrobial protein purified from Macadamia integrifolia seeds; amino acids 118 to 164 of clone 3 (SEQ ID NO: 5) (RKQQKRYEEQQREDEEKYEERMKEGDNKRDPQQREYEDCRRHCEQQE; Partial mature peptide)”, the “IC50 + Ca^2+” value in the assay with Saccharomyces cerevisiae (setting [4]) is above 50 mg/L; in [1] (setting [4]), above 50 mg/L; in the assay with Sclerotinia sclerotiorum (Table 1, Sclerotinia sclerotiorum, 1 mM Ca2+ in test medium), above 50 mg/L; in [2] (setting [4]) it was above 50 mg/L; in the assay on Phytophthora cryptogea (setting [4]), 10 to 25 mg/L; in the assay with Fusarium oxysporum (Table 1, Fusarium oxysporum, 1 mM Ca2+ in test medium), 20 to 50 mg/L. Moreover, the “IC50 + Ca^2+” value in the assay with Ceratocystis paradoxa (setting [4]) was above 50 mg/L; with Chalara elegans (setting [4]), 10 to 20 mg/L; in [3] (setting [4]), above 50 mg/L; in the assay on Ralstonia solanacearum (setting [4]) it was above 50 mg/L; in the assay with Cercospora nicotianae (setting [4]), 5 to 10 mg/L; with Candida albicans (setting [4]) it was above 50 mg/L. The “IC50 + Ca^2+” value was above 50 mg/L in the assay with Escherichia coli (setting [4]) and above 50 mg/L with Verticillium dahliae (Table 1, Verticillium dahliae, 1 mM Ca2+ in test medium). In addition, the “IC50 (concentration at which 50% inhibition of growth was observed)” value in the assay on Saccharomyces cerevisiae (Table 1, no added Ca2+) was 20 to 50 mg/L; in [1] (Table 1, no added Ca2+), 10 to 20 mg/L; in the assay on Sclerotinia sclerotiorum (Table 1, Sclerotinia sclerotiorum, no added Ca2+) it was 20 to 50 mg/L; in [2] (Table 1, no added Ca2+), above 50 mg/L; in the assay with Phytophthora cryptogea (Table 1, no added Ca2+) it was 5 to 10 mg/L; in the assay on Alternaria helianthi it was 5 to 10 mg/L. The “IC50 (concentration at which 50% inhibition of growth was observed)” value in the assay on Ceratocystis paradoxa (Table 1, no added Ca2+) was 20 to 50 mg/L; in the assay on Chalara elegans (Table 1, no added Ca2+), 2 to 5 mg/L; in assay [3] (Table 1, no added Ca2+), 50 mg/L; in the assay on Ralstonia solanacearum (Table 1, no added Ca2+) it was above 50 mg/L; in the assay on Cercospora nicotianae (Table 1, no added Ca2+) it was 5 to 10 mg/L; in the assay with Candida albicans (Table 1, no added Ca2+), above 50 mg/L. Besides, the “IC50 (concentration at which 50% inhibition of growth was observed)” value in the assay with Escherichia coli (Table 1, no added Ca2+) is above 50 mg/L; with Verticillium dahliae (Table 1, Verticillium dahliae, no added Ca2+) it was 5 to 10 mg/L. In the assay on Sclerotinia sclerotiorum (Table 2, Sclerotinia sclerotiorum, media A without added Ca2+), the “IC50 values, Ss” value lay within 20 to 50 mg/L. In addition, in the assay on Fusarium oxysporum (Table 2, Fusarium oxysporum, media A without added Ca2+), the “IC50 values, Foc” value came out at 10 mg/L. Besides, the “IC50 values, Cp” value in the assay on Ceratocystis paradoxa (Table 2, media A without added Ca2+) fell in the range of 20 to 50 mg/L. In addition, in the assay on fungi and bacteria (1 mM Ca2+ in the test medium), the “effect of Ca2+ on inhibitory activity (in words)” value was “greatly reduced (although not eliminated)”. The “IC50 values, Vd” value with Verticillium dahliae (Table 2, Verticillium dahliae, media A without added Ca2+) fell in the range of 5 to 10 mg/L.
For “PRHMQIAQQRAERRAEKEKRKQQKR [MiAMP2c pep2]”, the “IC50 values, Ss” value in the assay with Sclerotinia sclerotiorum amounted to 50 mg/L. The “IC50 values, Foc” value in the assay with Fusarium oxysporum was 10 to 20 mg/L. For the same substance, the “antimicrobial / antifungal activity (in words)” value in the assay with fungi and bacteria is given as “inhibitory activity against a variety of fungi”. Besides, in the assay with Leptosphaeria maculans, the “IC50 values, Lm” value was 10 to 20 mg/L. Further, the “IC50 values, Vd” value in the assay with Verticillium dahliae is 10 to 20 mg/L.
RQRDPQQQAEQAQKRAQRRETE [MiAMP2c pep1]: in the assay with Sclerotinia sclerotiorum, the “IC50 values, Ss” value is above 50 mg/L. In addition, the “antimicrobial / antifungal activity (in words)” value with fungi and bacteria is “little or no activity”.

Values taken from patent publication US7067624B2, “Antimicrobial proteins” (Commonwealth Scientific and Industrial Research Organisation, priority 1996, dated 2006).
